In one data set the test system is A. baumannii ATCC 19606. As to the kind of experiment: microbe, parasite or virus in culture. The data set is classed as cell-based, Acinetobacter baumannii. To be noted: for MIC: CLSI M100-ED34, MHB, triplicate; for Interpretation: CLSI interpretation of MIC. As for the experimental part:
(§1) The inhibitory activity of the antimicrobial peptide was assessed using the broth microdilution method following the CLSI M100-ED34 standard ([Humphries et al., 2021]). A single colony of A. baumannii was isolated and inoculated into Mueller-Hinton Broth (MHB), then incubated overnight at 37 °C with agitation at 180 rpm. The overnight cultures were adjusted to a 0.5 McFarland turbidity standard, after which it was diluted 1:100 in MHB medium. […] A. baumannii ATCC 19606 served as the control strain, and the experiments were conducted in triplicate.

A further data set deals with CRAB 236. The data set can be described thus: microbe, parasite or virus in culture. Type of data set: cell-based, Acinetobacter baumannii. The note with it: for Interpretation: CLSI interpretation of MIC. How it is done:
as §1

The subject of data set [1] is Escherichia coli biofilms. To be noted: 1 × MIC; ref Luo et al., 2024; cited from earlier work. From the text: In addition to […] the permeability of antimicrobial agents, bacterial biofilms, which rely on a complex matrix of extracellular polymeric substances, support the evolution of bacterial drug resistance, creating a protective barrier against drug-induced killing ([Verderosa et al., 2019]). AMPs have shown dual potential in meeting biofilm-related chronic infections: they can inhibit the initial stages of biofilm formation and eradicate mature biofilms. In this study, AaeAP2a, at a 4 × MIC, obtained an inhibition rate approaching 80% against biofilms formed by two strains of Acinetobacter ...

The subject of the next data set is mouse erythrocytes. As to the kind of experiment: Hemolytic activity. The data set is classed as cell-based. The note with it: 4% mouse erythrocyte suspension, 37 °C, 1 h, OD 540 nm. As for the experimental part:
(§2) To systematically evaluate the biosafety of the antimicrobial peptide AaeAP2a, we assessed its hemolytic activity and cytotoxicity ([Liu et al., 2020a]; [Zhou F. et al., 2022]). A 4% (v/v) erythrocyte suspension was prepared from freshly collected anticoagulated mouse blood by repeatedly resuspending and washing the cells three times with phosphate-buffered saline (PBS), following the established protocol. […] In this test, 1% (v/v) Triton X-100 was used as the positive control. Three replicates per treatment group were used to study OD at 540 nm using a microplate reader. The cytotoxicity of AaeAP2a on human embryonic kidney 293 T cells was tested using the Cell Counting Kit - 8 (CCK-8). […] The CCK-8 assay was thus performed, with three replicates recorded for each concentration.

Data set [2] concerns human embryonic kidney 293 T cells. The data set can be described thus: Cytotoxicity, CCK-8. Type of data set: cell-based. To be noted: 16 × MIC, 24 h. As for the experimental part: as §2
For another data set, the target named is T1, proteinase K (Parengyodontium album, UniProt P06873).
T1 construct: purchased Beyotime Biotechnology (China)
T1 sequence (P06873 106-384): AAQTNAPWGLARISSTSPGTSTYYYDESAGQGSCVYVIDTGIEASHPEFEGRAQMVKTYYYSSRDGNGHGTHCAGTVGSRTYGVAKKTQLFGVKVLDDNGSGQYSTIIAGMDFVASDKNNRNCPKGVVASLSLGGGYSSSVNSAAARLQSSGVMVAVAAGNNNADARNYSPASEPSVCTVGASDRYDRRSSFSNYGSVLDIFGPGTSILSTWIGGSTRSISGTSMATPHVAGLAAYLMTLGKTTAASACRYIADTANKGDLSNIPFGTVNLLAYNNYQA
The data set can be described thus: Protease resistance, read out by MIC. The data set is classed as in vitro ADME. The note with it: proteinase K 0–100 μg/mL, 1 h, 37 °C; MIC vs ATCC 19606; triplicate. How it is done: (§3) We thoroughly examined the effects of storage at room temperature, repeated freeze–thaw cycles, temperature variations, pH levels, salt ions, urea, and protease treatment on the antimicrobial activity of peptide AaeAP2a ([Zhu et al., 2022]). Through 0 to 12 freeze–thaw iterations, AaeAP2a was incubated for 1 h at various temperatures (0, 25, 50, 75, and 100 °C) and pH values (3 to 11). Additionally, the peptide was incubated with four salt ions—NaCl, KCl, CaCl2, and MgCl2—at concentrations of […], as well as with urea at concentrations of […] for 1 h. Furthermore, AaeAP2a was treated with proteinase K or trypsin at concentrations ranging from 0 to 100 μg/mL (i.e., 0, 20, 40, 60, 80, and 100 μg/mL) for 1 h at 37 °C. The changes in its antimicrobial activity were quantitatively assessed using the MIC method. All assays were conducted in triplicate. […] Proteinase K, Trypsin, and Urea were obtained from Beyotime Biotechnology (China), while all other reagents were purchased from Macklin (China).

In another data set the test system is trypsin. The data set can be described thus: Protease resistance, read out by MIC. The data set is classed as in vitro ADME. To be noted: trypsin concentrations exceeding 40 μg/mL, 1 h, 37 °C; MIC vs ATCC 19606; triplicate. As for the experimental part:
as §3

A further data set deals with horse erythrocytes. The note with it: 64 μg/mL; 2% horse erythrocyte suspension; ref Du et al.; cited from earlier work. From the text: Safety and stability are essential prerequisites for the clinical application of pharmaceutical agents.
Setting [3] is: Acinetobacter baumannii, ATCC19606, broth microdilution, read-out: MIC.
Where [4] appears, read: CRAB 236, broth microdilution, CLSI M100-ED34, MHB, triplicate.

≈ marks a conversion by molar mass, not a printed value. Entries after “also recorded” stand apart in the source; their conditions may differ. Read-outs that look alike come from different tables or passages of the source. No end group written: not given here. Some results are limits rather than exact numbers.
Throughout, for Interpretation: key: R, Resistant; I, Intermediate; S, Sensitive.

In the case of `CNC(C)C1CCC(N)C(OC2C(N)CC(N)C(OC3OCC(C)(O)C(NC)C3O)C2O)O1` (centres unmarked) [Gentamicin], the figures for the MIC with A. baumannii ATCC 19606 (setting [3]) and with CRAB 236 (Acinetobacter baumannii) were 1 µg/mL (≈ 2.09 µM) and more than 32 µg/mL, respectively. Moreover, the Interpretation result in the data set on A. baumannii ATCC 19606 is given as “S”; in the data set with CRAB 236 (CRAB 236) it was “R”.

On to `CN(C)[C@@H]1C(O)=C(C(N)=O)C(=O)[C@@]2(O)C(O)=C3C(=O)c4c(O)cccc4[C@@](C)(O)[C@H]3C[C@@H]12` [Tetracycline], for which the MIC with A. baumannii ATCC 19606 (setting [3]) was determined as 2 µg/mL (≈ 4.5 µM); in the data set with CRAB 236 (Acinetobacter baumannii), 64 µg/mL (≈ 144 µM). Further, the values for the Interpretation result with A. baumannii ATCC 19606 and in the data set with CRAB 236 (CRAB 236) were “S” and “R”, respectively.

For `C[C@@H](O)[C@H]1C(=O)N2C(C(=O)O)=C(S[C@@H]3CN[C@H](C(=O)N(C)C)C3)[C@H](C)[C@H]12` [Meropenem], the MIC in the data set on A. baumannii ATCC 19606 (setting [3]) is 2 µg/mL (≈ 5.22 µM); against CRAB 236 (Acinetobacter baumannii) it was 16 µg/mL (≈ 41.7 µM). The Interpretation entry with A. baumannii ATCC 19606 is recorded as “S”; in the data set on CRAB 236 (CRAB 236), “R”.

In the case of Colistin, the Interpretation result with A. baumannii ATCC 19606 and in the data set with CRAB 236 (CRAB 236) was “S” each time. In addition, the values for the MIC in the data set on A. baumannii ATCC 19606 (broth microdilution) and with CRAB 236 (setting [4]) were 2 µg/mL and 0.5 µg/mL, respectively. Also, the “Eradication efficiency against Escherichia coli biofilms” value in data set [1] is 35%.

For FLFKLIPKAIKGLVKAIRK [AaeAP2a], the figures for the MIC with A. baumannii ATCC 19606 (broth microdilution) and against CRAB 236 (setting [4]) were 3.125 µg/mL and 6.25 µg/mL, respectively. Further, the Hemolysis in the data set with mouse erythrocytes (16 × MIC) is less than 5%; in the data set on mouse erythrocytes (64 × MIC (200 μg/mL)), less than 5%; with horse erythrocytes it was “complete lysis”. The same molecule displayed a Cell viability in data set [2] of more than 90%. Further, at proteinase K, the “Resistance to proteinase K” value is reported as “substantial resistance”. Moreover, in the data set on trypsin, the “Activity after trypsin treatment” value is on record as “markedly reduced; also recorded: diminished”.

Regarding `CO/N=C(\C(=O)N[C@@H]1C(=O)N2C(C(=O)O)=C(CSc3nc(=O)c(=O)[nH]n3C)CS[C@H]12)c1csc(N)n1` [Ceftriaxone], the MIC in the data set with A. baumannii ATCC 19606 (setting [3]) came out at 16 µg/mL (≈ 28.9 µM); against CRAB 236 (Acinetobacter baumannii) it was 32 µg/mL (≈ 57.7 µM). The Interpretation entry in the data set on A. baumannii ATCC 19606 and in the data set with CRAB 236 (CRAB 236) was “I” each time.

The values are drawn from article PMC12602503, “AaeAP2a, a scorpion-derived antimicrobial peptide, combats carbapenem-resistant Acinetobacter baumannii via membrane disruption and triggered metabolic collapse” (Frontiers in Microbiology, 2025).
